The values that follow are results of earlier work, collected in patent US20120046351A1, “Medicinal cannabis added in food” (priority 2010, published 2012).

The conditions of data set [1]: 180 degrees C.
Another data set has as its system people who use cannabis. Particulars: compared with the no cannabinoid and the TCH+CBD groups.

For `CCCCCc1cc(O)c2c(c1)OC(C)(C)[C@@H]1CCC(C)=C[C@@H]21` [Δ^9-THC, Tetrahydrocannabinol], the “degradation of Δ^9-THC into cannabinol and dihydrocannabinol” value in data set [1] is on record as “A significant percentage of Δ^9-THC being degraded”. In addition, the positive schizophrenia-like symptoms entry in the data set on people who use cannabis is “higher levels of positive schizophrenia-like symptoms”.
